Test results as given in paper PMC9549030, “Structural basis for specific inhibition of the deubiquitinase UCHL1” (Nature Communications, 2022).
Residue numbers refer to the chain shown, from its start. Values joined by “and” are separate entries in the source; they are usually repeats but may differ in a detail not shown here. Equal values may be shown once.

What was measured:
UCHL1 [1] = molecular target: T1, UCHL1 (Homo sapiens, UniProt P09936); test: kobs/[I] kinetic assay; format: biochemical; set-up: kobs: unit not given here; details: Figure 3c right panel
T1 sequence (P09936 1-223): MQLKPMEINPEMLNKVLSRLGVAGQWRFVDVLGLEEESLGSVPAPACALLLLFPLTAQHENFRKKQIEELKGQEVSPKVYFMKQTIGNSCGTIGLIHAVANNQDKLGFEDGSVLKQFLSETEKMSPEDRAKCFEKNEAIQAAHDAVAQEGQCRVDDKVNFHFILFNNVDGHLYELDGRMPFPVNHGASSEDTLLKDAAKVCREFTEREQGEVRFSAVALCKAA
Procedure: Reactions were performed in 384 well plates as above. Compound (5 µL of a 4x stock in reaction buffer H supplemented with 2.5 mM TCEP; varying final concentrations ranging from 78 nM to 200 µM) and Ub-Rhodamine 110 (5 µL of a 4x stock in buffer H supplemented with 2.5 mM TCEP; final concentration: 50 nM) were mixed in a 1:1 ratio.

UCHL1 [2] = molecular target: T1, UCHL1; test: Intact protein mass spectrometry; format: binding; details: compound 10 µM
Description: (§1) Spectra were deconvoluted with ProMass (Enovatia).

UCHL3 = molecular target: T2, UCHL3 (Homo sapiens, UniProt P15374); test: Intact protein mass spectrometry; format: binding; details: enzyme 3 µM; compound 10 µM; 1 h
T2 sequence (P15374 1-230): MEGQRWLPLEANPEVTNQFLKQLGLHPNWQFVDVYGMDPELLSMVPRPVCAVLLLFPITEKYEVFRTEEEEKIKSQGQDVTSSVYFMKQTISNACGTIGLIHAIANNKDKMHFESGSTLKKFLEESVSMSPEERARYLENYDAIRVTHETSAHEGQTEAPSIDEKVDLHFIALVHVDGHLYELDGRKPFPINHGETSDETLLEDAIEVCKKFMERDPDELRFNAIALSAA
Description: as §1

UCHL3 A11I = molecular target: T3, UCHL3 A11I (Homo sapiens, UniProt P15374, A11I); test: Intact protein mass spectrometry; format: binding; details: enzyme 3 µM; compound 10 µM; 1 h
T3 sequence (P15374 1-230 A11I): T2 sequence (P15374 1-230) with A11I
Description: as §1

UCHL3 L168F = molecular target: T4, UCHL3 L168F (Homo sapiens, UniProt P15374, L168F); test: Intact protein mass spectrometry; format: binding; details: enzyme 3 µM; compound 10 µM; 1 h
T4 sequence (P15374 1-230 L168F): T2 sequence (P15374 1-230) with L168F
Description: as §1

UCHL3 A11I,L168F = test: Intact protein mass spectrometry; format: binding, human; details: enzyme 3 µM; compound 10 µM; 1 h
Description: as §1

UCHL1 [3] = molecular target: T1, UCHL1; test: Jump-dilution assay; format: biochemical; details: 625 nM GK13S 2 h, then diluted 100-fold
Procedure: Reactions were performed in similar 384 plates as above in a final volume of 20 µL. […] Parts of this solution were diluted at 1:50 at different time points with buffer H. All samples were then diluted 1:2 with 100 nM Ub-Rho (buffer H, final concentration in well 50 nM) and fluorescence was recorded as described above.

DUBs in HEK293 lysate = test: Activity-based protein profiling in the lysate with Ub-VS competition; format: binding, human; details: 1 µM, 1 h
Procedure: Cells (4 × 10^6) were seeded in 10 cm dishes and grown to 90% confluency. The medium was aspirated, cells were washed with ice-cold PBS, treated with 600 µL ABP lysis buffer (1% (v/v) IGEPAL, 50 mM Tris, 150 mM NaCl, 5% glycerol, pH 8, cOmplete protease inhibitor cocktail), and incubated on ice for 15 min. The lysed cells were scrapped off the dish, cleared by centrifugation, and the protein concentration was determined via a Bradford assay. […] Each compound was diluted to a 2x concentration in PBS buffer from a 10 mM stock in DMSO (final concentration: 1 µM). Then each compound dilution or a DMSO dilution was mixed with cell lysate and incubated for one hour at room temperature. […] Samples were resolved by SDS-PAGE using a 4–12% Bis-Tris gel (Invitrogen, NuPAGE) with MES SDS running buffer for 50 min at 180 V. Fluorescence was read out using the Alexa564 (λex/em 520–545/577–613 nm, for TAMRA) and Alexa680 (λex/em 650–675/700–730 nm, for the PageRuler Prestained NIR Protein Ladder (Thermo Scientific)) channels on a ChemiDoc MP Imaging System (Bio-Rad).

HEK293 cells = test: Cell growth and viability assay (confluency, propidium iodide); format: cell-based, human; details: up to 5 µM, up to 72 h
Procedure: (§2) HEK293 cells (5 × 10^3/well) or U-87 MG cells (5.5 × 10^3/well) were seeded into 96-well dishes. The following day cells were treated with the compounds at varying concentrations and propidium iodide at 20 µg/mL. The plates were immediately transferred to the Incucyte S3. Bright-field and red fluorescent images were automatically captured at 1 or 2 h intervals for 72 h with 10x magnification. The confluency of cells and the number of PI-positive cells was determined using the Incucyte masking program.

U-87 MG cells = test: as above; format: cell-based, human; details: up to 5 µM, up to 72 h
Procedure: as §2

UCHL1 [4] = molecular target: T1, UCHL1; test: Identification of probe-labeled proteins with mass spectrometry (pulldown enrichment); details: HEK293 cells, 24 h
Procedure: Cells were cultured, treated with a compound, and lysed as described above. The cell lysate was diluted to a protein concentration of 2 mg/mL with ABP lysis buffer. 1 µL of each click reagent (see above) were added to each sample, followed by an incubation period of one hour at room temperature with protection from light. The sample volume was adjusted to 1000 µL with PBS and 30 µL of a NeutrAvidin (Thermo Fisher) bead slurry (prewashed 3x with PBS) were added to each sample. The samples were incubated for one hour to overnight on a rotator at 15 rpm at 4 °C. Beads were pelleted by centrifugation, the supernatant was discarded, and the beads were washed six times (1x with ½x lysis buffer, followed by five washes with PBS). After removing the washing solution completely, the beads were subjected to reduction with dithiothreitol (1 mM), alkylation with chloroacetamide (5 mM) and on-bead digestion with first LysC (Serva Biotech, 1 h, 37 °C), followed by trypsin (Sigma Aldrich, 1 h, overnight). Tryptic peptides were desalted with C18 StageTips and analyzed by nano-HPLC-MS/MS.
An Ultimate 3000 RSLC nano-HPLC system and a Hybrid-Orbitrap mass spectrometer (Q Exactive Plus) equipped with a nano-spray source (Thermo Fisher Scientific) was used. The protein fragments were enriched on a C18 PepMap 100 column (5 μm, 100 Å, 300 μm ID * 5 mm, Dionex) using 0.1% TFA, at a flow rate of 30 μL/min, for 5 min and separated on a C18 PepMap 100 column (3 μm, 100 Å, 75 μm ID × 50 cm) using a linear gradient (5–30% ACN/H2O + 0.1% formic acid over 90 min) with a flow rate of 300 nL/min. […] Signals in the mass range of m/z 300 to 1650 were acquired at a resolution of 70,000 for the full scan, followed by ten high-energy collision-dissociation (HCD) MS/MS scans of the most intense at least doubly charged ions at a resolution of 17,500. Proteins were relatively quantified by using MaxQuant[60] v.2.0.3.1, including the Andromeda search algorithm and searching the Homo sapiens reference proteome of the UniProt database. Briefly, an MS/MS ion search was performed for enzymatic trypsin cleavage, allowing two missed cleavages. Carbamidomethylation was set as a fixed protein modification, and oxidation of methionine and acetylation of the N-terminus were set as variable modifications. The mass accuracy was set to 20 parts per million (ppm) for the first search and to 4.5 ppm for the second search. The false discovery rates for peptide and protein identification were set to 0.01. Only proteins for which at least two peptides were quantified were chosen for further validation. Relative quantification of proteins was performed by using the label-free quantification algorithm implemented in MaxQuant. Statistical data analysis of pulldown samples was performed using Perseus[61] v.1.6.15.0, including proteins which were identified in at least four of the five biological replicates which were used per condition. Label-free quantification (LFQ) intensities were log-transformed (log2); replicate samples were grouped together. Pairwise comparisons of groups were performed separately. Missing values were imputed using small normally distributed values (width 0.3, downshift 1.8) and a two-sided t-test (s0 = 5, FDR = 0.001) was performed.

C#CCCCNC(=O)c1ccc(-n2cnc(NC(=O)[C@H]3CCN(C#N)C3)c2)cc1 [GK13S]
kobs (UCHL1 [1]; c(GK13S) 0.078125): 0.000109
kobs (UCHL1 [1]; c(GK13S) 0.15625): 0.000197
kobs (UCHL1 [1]; c(GK13S) 0.3125): 0.000258
kobs (UCHL1 [1]; c(GK13S) 0.625): 0.000456
kobs (UCHL1 [1]; c(GK13S) 1.25): 0.000882
kobs (UCHL1 [1]; c(GK13S) 2.5): 0.001558
stoichiometry of covalent binding to UCHL1 (UCHL1 [2]; UCHL1 3 µM, 16 h): bound only once
protein species observed after compound treatment (UCHL1 [2]; enzyme 3 µM, 1 h): UCHL1 + 1x GK13S
protein species observed after compound treatment (UCHL3): free UCHL3
protein species observed after compound treatment (UCHL3 A11I): free UCHL3 A11I
protein species observed after compound treatment (UCHL3 L168F): free UCHL3 L168F
protein species observed after compound treatment (UCHL3 A11I,L168F): + 1x GK13S
reversibility of inhibition after jump dilution (UCHL1 [3]): inhibition was sustained
DUB engagement (Ub-VS competitive labeling) (DUBs in HEK293 lysate): Ubiquitin-probe competitive band of approx. 30 kDa
growth arrest and apoptosis (HEK293 cells): neither GK13S nor GK16S showed growth arrest nor apoptosis
toxicity (cell growth and viability) (U-87 MG cells): nontoxic
change in log2 enrichment values of UCHL1, GK13S vs GK13R (UCHL1 [4]; 1 µM): 2
change in log2 enrichment values of UCHL1, GK13S vs GK16S (UCHL1 [4]; 1 µM): 5
difference in UCHL1 enrichment, GK13S vs GK13R (UCHL1 [4]; 1 µM): fourfold
difference in UCHL1 enrichment, GK13S vs GK16S (UCHL1 [4]; 1 µM): > 32 fold
enrichment factor of UCHL1 (log2, vs DMSO) (UCHL1 [4]; 1 µM): 8 and > 8
enrichment of UCHL1 vs DMSO (UCHL1 [4]; 5 µM): ~ 3000 fold
logarithmic enrichment factor of UCHL1 (log2, vs DMSO) (UCHL1 [4]; 5 µM): 11.5
